Test results from PubChem BioAssay (NCI).
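Interpolation was linear, between the two tested concentrations surrounding the appropriate level; five concentrations were tested over 48 hours in 96-well plates. The concentration for 50% growth inhibition is given as GI50. At the TGI there is no net growth.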

What was measured:
Assay in all cases: DTP human tumour cell line panel, 48 h
A498 renal = tested on: A498 renal
ACHN renal = tested on: ACHN renal
CAKI-1 renal = tested on: CAKI-1 renal
HOP-62 NSCLC = tested on: HOP-62 NSCLC
MALME-3M melanoma = tested on: MALME-3M melanoma
MOLT-4 leukemia = tested on: MOLT-4 leukemia
OVCAR-3 ovarian = tested on: OVCAR-3 ovarian
RXF 393 renal = tested on: RXF 393 renal
SN12C renal = tested on: SN12C renal
PC-3 prostate = tested on: PC-3 prostate

SMILES	TGI (A498 renal)	TGI (ACHN renal)	TGI (CAKI-1 renal)	TGI (HOP-62 NSCLC)	TGI (MALME-3M melanoma)	TGI (MOLT-4 leukemia)	TGI (OVCAR-3 ovarian)	TGI (RXF 393 renal)	TGI (SN12C renal)	GI50 (A498 renal)	GI50 (ACHN renal)	GI50 (CAKI-1 renal)	GI50 (HOP-62 NSCLC)	GI50 (MALME-3M melanoma)	GI50 (MOLT-4 leukemia)	GI50 (OVCAR-3 ovarian)	GI50 (PC-3 prostate)	TGI (PC-3 prostate)	GI50 (SN12C renal)	GI50 (RXF 393 renal)
CCO/C=C1\N=C(C(Cl)c2ccccc2)OC1=O (stereo not drawn)	> 100 µM	> 100 µM	> 100 µM	> 100 µM	> 100 µM	> 100 µM	> 100 µM	> 100 µM	> 100 µM											
COc1cc([C@H]2c3cc4c(cc3[C@H](NCc3ccc([N+](=O)[O-])cc3)C3COC(=O)[C@H]32)OCO4)cc(OC)c1O (stereo partly drawn)	2.67 µM	2.32 µM	4.58 µM	0.784 µM	17.3 µM	> 100 µM	40 µM	> 64.6 µM	4.68 µM											
CCOC(=O)[C@H]1CSC[C@@H](C(=O)OC)N1	> 100 µM	> 100 µM	> 100 µM	> 100 µM	> 100 µM	> 100 µM	> 100 µM	> 100 µM	> 100 µM											
CCCOC(=O)N[C@H]1CCc2cc(OC)c(OC)c(OC)c2-c2ccc(SC)c(=O)cc21		15.7 µM	24.2 µM	> 100 µM	> 47.4 µM	24.4 µM	< 0.0238 µM		> 100 µM	< 0.01 µM	< 0.01 µM	< 0.0201 µM	< 0.01 µM	0.0476 µM	< 0.01 µM	< 0.01 µM	< 0.01 µM	> 100 µM	< 0.01 µM	
CC(C)(c1ccc(Oc2ccc(C#N)c(C#N)c2)cc1)c1ccc(Oc2ccc(C#N)c(C#N)c2)cc1	> 100 µM	> 100 µM	> 100 µM	> 100 µM	> 100 µM	> 100 µM	> 100 µM	> 100 µM	> 100 µM	> 100 µM	> 100 µM	> 100 µM	> 100 µM	> 100 µM	> 100 µM	> 100 µM			> 100 µM	> 100 µM
NC(=O)C(=Cc1ccc(CP(=O)(O)O)cc1)C(N)=O	> 100 µM	> 100 µM	> 100 µM	> 100 µM	> 100 µM	> 100 µM	> 100 µM	> 100 µM	> 100 µM											
COc1cc(C=O)c(-c2cc3c(cc2C2(C)OCCS2)OCO3)c(OC)c1OC (stereo not drawn)	23.9 µM	> 99.1 µM	71.4 µM	47.1 µM	90.8 µM	> 239 µM	13.6 µM	46.9 µM	49.8 µM											
CC(=O)C1COC(O)C1C (stereo not drawn)	> 100 µM	80.9 µM	62.9 µM	33 µM		99.2 µM	37 µM		50.6 µM									55.5 µM		
